Results as given in patent US10117430B2, “Malononitrile compounds for controlling animal pests” (BASF SE, priority 2012, dated 2018).

Legend:
Assay type in all cases: in vivo
[1] = system: Silverleaf Whitefly (Bemisia argentifolii); assay: B.5 Silverleaf whitefly test on sprayed cotton plants; conditions: 72 h, in comparison with untreated controls, 3 days after treatment
Method in brief: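 Cotyledon-stage cotton plants were electrostatically sprayed with compound diluted from a 10,000 ppm cyclohexanone stock into 50% acetone/water with 0.01% nonionic surfactant. After drying, 10–12 adult whiteflies (3–5 days old) were released onto each plant. Mortality was scored after 3 days at 25 °C and 20–40% RH against untreated plants.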

[2] = system: Boll Weevil (Anthonomus grandis); assay: B.9 Boll weevil microtiter diet test, egg and larval mortality; conditions: 120 h, in comparison with untreated controls, egg and larval mortality after 5 days
Method in brief: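 Insect diet carrying 20-30 A. grandis eggs per well was sprayed with compounds formulated in 75% water/25% DMSO, at various concentrations with two replicates. Plates were held at about 23±1° C and 50±5% RH for 5 days. Egg and larval mortality were then scored visually.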

[3] = system: Yellow Fever Mosquito (Aedes aegypti); assay: whole plant or invertebrate; conditions: 48 h, in comparison with untreated controls, larval mortality after 2 days
Method in brief: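 Freshly hatched larvae (5-15 per well) in 200 μl tap water; compounds formulated in 75% water/25% DMSO and sprayed at 2.5 μl per well at several concentrations, two replicates. Incubated 2 days at 28±1° C., 80±5% RH; larval mortality scored visually.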

[4] = system: Rice brown plant hopper (Nilaparvata lugens); assay: B.11 Rice brown plant hopper test on sprayed rice seedlings; conditions: in comparison with untreated controls, after 72 hours
Method in brief: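 Compounds formulated in 50:50 acetone:water with 0.1% vol/vol surfactant and sprayed onto potted rice seedlings. Air-dried plants were caged, infested with 10 adults and held at about 28-29 °C, 50-60% RH. Percent mortality scored after 72 hours.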

[5] = system: Mediterranean Fruitfly (Ceratitis capitata); assay: B.2 Mediterranean fruitfly microtiter diet test, egg and larval mortality; conditions: 120 h, in comparison with untreated controls, egg and larval mortality after 5 days
Method in brief: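 Microtiter plates held insect diet with 50-80 C. capitata eggs; compounds in 75% water/25% DMSO were sprayed onto the diet at various concentrations, two replicates. Plates kept about 5 days at 28±1 °C and 80±5% RH, then egg and larval mortality scored visually.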

[6] = system: Vetch Aphid (Megoura viciae); assay: B.7 Vetch aphid test on broad bean leaf disks; conditions: foliar, 120 h, in comparison with untreated controls, 5 days
Method in brief: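 Broad bean leaf disks sprayed with compounds in 25% DMSO/75% water at several concentrations, two replicates, then air-dried. Infested with 5-8 adult Megoura viciae and held 5 days at about 23±1 °C and 50±5% RH. Mortality and fecundity scored visually.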

[7] = system: Southern Armyworm (Spodoptera eridania); assay: B.6 Southern armyworm test on sprayed lima bean plants; conditions: 96 h, 500 ppm, in comparison with untreated controls, 4 days after treatment
Method in brief: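 Lima bean plants at the 1st true leaf stage were sprayed with cyclohexanone-based solutions diluted in 50% acetone/water with 0.01% nonionic surfactant. Once dry, plants were bagged with 10–11 larvae and held at 25 °C and 20–40% RH. Mortality and reduced feeding were scored at 4 days against untreated plants.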

[8] = system: Orchid Thrips (Dichromothrips corbetti); assay: B.4 Orchid thrips floral-immersion test; conditions: 96 h, in comparison with untreated controls, after 4 days
Method in brief: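 Orchid flowers dipped in 300 ppm compound (acetone:water 1:1, 0.01% surfactant), dried, then caged with 10-15 adult D. corbetti from a lab colony. Held under continuous light at about 28° C. Live thrips counted after 4 days; mortality extrapolated from pre-treatment numbers.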

N#CC(C#N)(Cc1ccc(C(F)(F)F)nc1)c1cc(F)cc(F)c1 [II-34]
≥ 75%: mortality at 500 ppm [1] | mortality at 2500 ppm [2] | mortality at 2500 ppm [3] | mortality at 300 ppm [4] | mortality at 2500 ppm [5] | mortality at 2500 ppm [6] | mortality at 500 ppm [7] | mortality at 500 ppm [8]
